# Reference: paper PMC10770036, “Novel dual inhibitors of PARP and HDAC induce intratumoral STING-mediated antitumor immunity in triple-negative breast cancer” (Cell Death & Disease, 2024)
# System: 4T1 tumors
# Test: Combination with anti-PD-L1 in syngeneic murine 4T1 model
# Type: in vivo, mice
# Settings: syngeneic 4T1 model; B102 15 mg/kg or B302 50 mg/kg every 2 days; anti-PD-L1 100 μg every 5 days; intraperitoneal
# Source text: MDA-MB-436 cells (5 × 10^6) were suspended in PBS and Matrigel (Corning) at a 1:1 ratio and orthotopically injected into the fat pads of 6- to 7-week-old female NOD-Prkdc^scid Il2rg^em1Smoc (M-NSG) mice from the Shanghai Model Organisms Center, Inc. MDA-MB-231 cells (5 × 10^6) were suspended in PBS orthotopically injected into the fat pads of 6- to 7-week-old female BALB/c nude mice from the Shanghai Model Organisms Center, Inc. 4T1 cells (1 × 10^6) were suspended in PBS and injected into the fat pads of 6- to 7-week-old male BALB/c mice from GemPharmatech Co., Ltd. […] For the MMTV-PyMT mice, fourteen 6-week-old female mice were randomly divided into two groups, and no blinding was performed. […] For the combination of B102 or B302 and anti-PD-L1 studies, the mice were randomly divided into four treatment groups without blinding: (1) vehicle; (2) B102 (15 mg/kg, every 2 days) or B302 (50 mg/kg, every 2 days); (3) anti-PD-L1 antibodies (100 μg, dissolved in PBS, every 5 days, Atezolizumab, Clone No.: 2B11D11, Shanghai Lollane biological technology Co., Ltd., Shanghai, China); or (4) combination of B102 or B302 and anti-PD-L1, all treatment via an intraperitoneal injection. Tumor size was monitored with a digital caliper, and tumor volume was calculated using the following equation: volume = (length × width^2)/2. […]
substance,measurement,value
"anti-PD-L1: anti-PD-L1 antibodies (Atezolizumab, Clone No.: 2B11D11), immune checkpoint blockade",tumor growth,restricted tumor growth
